Source: US9896440B2, “Aryl substituted heterocyclyl sulfones” (GRÜNENTHAL GMBH, priority 2014, dated 2018)

Biological target: T1, Human CaV2.2 channels (Homo sapiens, UniProt Q00975)
T1 construct: expressed in transfected cells; Kir2.3 also stably co-expressed
Experiment: Fluorescence assay for CaV2.2 channels using potassium depolarization to induce channel opening (FLIPR, Fluo 4)
Format: cell-based
Details: 30 mM KCl assay buffer (inactivated channel state), HEK293 cells; for Activity Category: %-Inhib (CaV2.2) @3 μM @30 mM KCl: 3 μM test compound; for inhibition at 3 µM: HEK293, 3 μM test compound, read-out: Activity Category: %-Inhib (CaV2.2) @3 μM @30 mM KCl
Text: In the process, the Ca^2+ influx is quantified in the FLIPR assay with the aid of a Ca^2+-sensitive dye (type Fluo-4, Molecular Probes Europe BV, Leiden, the Netherlands) in a fluorescent imaging plate reader (FLIPR 3, Molecular Devices, Sunnyvale, USA), as described hereinafter.
Human CaV2.2 channels were stably expressed in HEK293 cells together with alpha2-delta and beta subunits of voltage gated calcium channels. In addition, an inwardly rectifying potassium channel (Kir2.3) was stably expressed in these cells to augment control of the cell membrane potential by the concentration of extracellular potassium ions. Raise of the extracellular potassium concentration leads to depolarization of the membrane potential and thus regulates the voltage dependent state of CaV2.2 channels. For preparation, cells were seeded in black poly-D-lysine coated 96-well plates (Becton Dickinson, Biocoat 4640) in 100 μL medium [500 mL DMEM/F-12 plus Glutamax (Invitrogen 31331-093) plus 5.5 mL MEM NEAA 100× (Invitrogen 11140-035) plus 50 mL FBS decomplemented (Invitrogen 10270-106) plus 200 μg/mL Geneticin (Invitrogen 10131-027) plus 50 μg/mL Hygromycin B (Invitrogen 10687-010) plus 2 μg/mL Blasticidin (anti-bl5b Invivo-Gen) plus 0.2 μg/mL Puromycin (A 11138-03)] at a cell density of 30.000 cells per well. Plates were incubated at 37° C. (5% CO2) for 20 to 23 h. On the day of experiment medium was discarded and cells were loaded with Fluo 4 by addition of 100 μL of basic assay buffer (10 mM HEPES, 1 mM KCl, 149 mM NaCl, 0.8 mM CaCl2, 1.7 mM MgCl2, 10 mM Glucose, 0.1% BSA. pH 7.4) containing 2 μM Fluo 4 (Molecular Probes; F-14201), 0.01% pluronic acid (Molecular Probes; P-6866) and 2.5 mM probenecid (Molecular Probes; P36400). Cells were incubated in the dark at 25° C. for 60 min. Then dye containing buffer was discarded and 100 μL basic (1 mM KCl) or alternative (30 mM KCl) assay buffer was added. The alternative assay buffer contained altered concentrations of KCl (30 mM) and NaCl (120 mM) and was used in order to promote the inactivated channel state. After that 25 μL of basic or alternative assay buffer with or without test compound were added and cells were incubated again in the dark at 25° C. for 15 min. Fluorescence intensity was measured on a FLIPR 3 instrument (Molecular Devices Corp., Sunnyvale, Calif.) with excitation at 480 nm and emission at 535 nm. After continuously reading fluorescence for 30 sec, 50 μL of basic assay buffer containing 210 mM KCl (NaCl omitted) were added for depolarization. Peak fluorescent signal intensity was determined and the amplitude of the peak signal, normalized to base line, was used to measure channel inhibition by test compounds.

T1 sequence (Q00975 whole entry): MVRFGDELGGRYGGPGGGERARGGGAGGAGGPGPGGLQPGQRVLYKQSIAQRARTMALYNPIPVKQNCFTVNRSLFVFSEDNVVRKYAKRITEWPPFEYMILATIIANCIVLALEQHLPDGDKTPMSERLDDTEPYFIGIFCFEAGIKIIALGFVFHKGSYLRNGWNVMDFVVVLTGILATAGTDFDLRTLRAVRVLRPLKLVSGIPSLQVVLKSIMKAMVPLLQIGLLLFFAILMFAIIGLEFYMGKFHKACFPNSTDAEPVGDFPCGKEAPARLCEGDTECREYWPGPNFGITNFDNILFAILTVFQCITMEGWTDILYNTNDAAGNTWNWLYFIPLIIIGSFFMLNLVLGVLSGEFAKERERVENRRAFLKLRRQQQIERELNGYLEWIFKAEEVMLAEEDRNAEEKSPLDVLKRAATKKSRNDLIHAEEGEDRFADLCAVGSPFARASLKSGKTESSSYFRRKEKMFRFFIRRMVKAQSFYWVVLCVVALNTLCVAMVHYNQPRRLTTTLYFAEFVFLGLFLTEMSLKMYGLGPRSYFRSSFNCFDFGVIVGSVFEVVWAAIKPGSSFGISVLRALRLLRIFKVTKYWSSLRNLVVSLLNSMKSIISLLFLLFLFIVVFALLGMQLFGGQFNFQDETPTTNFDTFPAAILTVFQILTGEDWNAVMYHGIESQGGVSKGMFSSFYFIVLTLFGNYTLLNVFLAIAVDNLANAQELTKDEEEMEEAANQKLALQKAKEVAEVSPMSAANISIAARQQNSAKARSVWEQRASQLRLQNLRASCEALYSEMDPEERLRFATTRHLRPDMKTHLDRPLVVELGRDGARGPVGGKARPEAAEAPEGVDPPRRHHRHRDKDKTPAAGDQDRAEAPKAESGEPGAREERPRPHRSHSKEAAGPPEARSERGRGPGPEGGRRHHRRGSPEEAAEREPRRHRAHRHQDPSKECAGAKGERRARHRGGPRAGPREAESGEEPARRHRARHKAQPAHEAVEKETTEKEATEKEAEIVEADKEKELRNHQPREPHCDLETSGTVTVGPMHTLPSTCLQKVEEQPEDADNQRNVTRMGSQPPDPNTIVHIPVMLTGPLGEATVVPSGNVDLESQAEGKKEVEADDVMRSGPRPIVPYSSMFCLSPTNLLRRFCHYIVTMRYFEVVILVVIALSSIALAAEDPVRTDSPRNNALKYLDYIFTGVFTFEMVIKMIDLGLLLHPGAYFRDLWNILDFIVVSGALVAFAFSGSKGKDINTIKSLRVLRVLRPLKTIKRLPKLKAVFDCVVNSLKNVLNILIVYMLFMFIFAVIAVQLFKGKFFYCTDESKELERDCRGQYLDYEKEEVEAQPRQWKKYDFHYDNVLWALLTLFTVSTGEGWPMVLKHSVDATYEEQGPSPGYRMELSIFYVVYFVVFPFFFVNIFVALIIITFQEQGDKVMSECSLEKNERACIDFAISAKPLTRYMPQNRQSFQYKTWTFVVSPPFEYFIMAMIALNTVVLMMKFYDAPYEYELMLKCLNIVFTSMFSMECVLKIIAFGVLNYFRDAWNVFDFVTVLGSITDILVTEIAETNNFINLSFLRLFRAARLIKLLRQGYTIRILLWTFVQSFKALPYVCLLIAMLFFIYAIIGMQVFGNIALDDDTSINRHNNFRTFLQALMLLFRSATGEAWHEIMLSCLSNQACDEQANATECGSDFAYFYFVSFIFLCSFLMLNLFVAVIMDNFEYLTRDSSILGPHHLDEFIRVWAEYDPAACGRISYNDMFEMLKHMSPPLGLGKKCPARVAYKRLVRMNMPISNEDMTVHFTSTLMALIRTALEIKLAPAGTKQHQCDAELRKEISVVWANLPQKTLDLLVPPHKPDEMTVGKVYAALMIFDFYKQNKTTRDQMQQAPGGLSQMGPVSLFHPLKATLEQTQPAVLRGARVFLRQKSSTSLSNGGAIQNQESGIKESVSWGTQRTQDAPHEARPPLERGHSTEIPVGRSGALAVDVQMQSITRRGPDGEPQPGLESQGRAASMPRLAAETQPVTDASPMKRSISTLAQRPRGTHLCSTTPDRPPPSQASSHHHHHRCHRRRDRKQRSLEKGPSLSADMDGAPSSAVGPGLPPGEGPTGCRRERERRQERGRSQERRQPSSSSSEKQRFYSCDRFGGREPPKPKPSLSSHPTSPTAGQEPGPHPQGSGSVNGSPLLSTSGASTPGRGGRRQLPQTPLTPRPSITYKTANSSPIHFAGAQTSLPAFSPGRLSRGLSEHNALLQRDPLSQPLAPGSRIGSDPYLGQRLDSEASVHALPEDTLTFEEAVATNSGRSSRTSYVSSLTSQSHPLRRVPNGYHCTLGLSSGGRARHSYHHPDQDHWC

CC1(S(=O)(=O)c2cccc(C(F)(F)F)c2)CCOC(COc2ccc(S(C)(=O)=O)c(F)c2)C1 (single isomer, unassigned) [SC-151, 2-[(3-Fluoro-4-methylsulfonyl-phenoxy)-methyl]-4-methyl-4-[[3-(trifluoromethyl)phenyl]sulfonyl]-tetrahydro-pyran]
Activity Category: %-Inhib (CaV2.2) @3 μM @30 mM KCl: A (%-Inhibition >95%)

CC1(S(=O)(=O)c2cccc(C(F)(F)F)c2)COC(c2ccc(Cl)cc2)C1 (stereo not drawn) [SC-100, 2-(4-Chlorophenyl)-4-methyl-4-[[3-(trifluoromethyl)phenyl]sulfonyl]-tetrahydro-furan]
inhibition at 3 µM: 75 to 95%

CC1(S(=O)(=O)c2cccc(C(F)(F)F)c2)COC(c2ccc(Cl)cc2)C1 (stereo not drawn) [SC-101, 2-(4-Chlorophenyl)-4-methyl-4-[[3-(trifluoromethyl)phenyl]sulfonyl]-tetrahydro-furan]
Activity Category: %-Inhib (CaV2.2) @3 μM @30 mM KCl: A (%-Inhibition >95%)

CC1(S(=O)(=O)c2cccc(C(F)(F)F)c2)COC(c2ccc(Cl)cc2)C1 (stereo not drawn) [SC-102, 2-(4-Chlorophenyl)-4-methyl-4-[[3-(trifluoromethyl)phenyl]sulfonyl]-tetrahydro-furan]
Activity Category: %-Inhib (CaV2.2) @3 μM @30 mM KCl: B (%-Inhibition >75% up to ≦95%)

CC1(S(=O)(=O)c2cccc(C(F)(F)F)c2)COC(c2ccc(Cl)cc2)C1 (stereo not drawn) [SC-103, 2-(4-Chlorophenyl)-4-methyl-4-[[3-(trifluoromethyl)phenyl]sulfonyl]-tetrahydro-furan]
Activity Category: %-Inhib (CaV2.2) @3 μM @30 mM KCl: A (%-Inhibition >95%)

CC1(S(=O)(=O)c2cccc(C(F)(F)F)n2)CCOC(c2ccc(Cl)cc2)C1 (stereo not drawn) [SC-104, 2-[[2-(4-Chlorophenyl)-4-methyl-tetrahydro-pyran-4-yl]sulfonyl]-6-(trifluoromethyl)-pyridine]
inhibition at 3 µM: 75 to 95%

CC1(S(=O)(=O)c2cccc(C(F)(F)F)n2)CCOC(c2ccc(Cl)cc2)C1 (stereo not drawn) [SC-105, 2-[[2-(4-Chlorophenyl)-4-methyl-tetrahydro-pyran-4-yl]sulfonyl]-6-(trifluoromethyl)-pyridine]
Activity Category: %-Inhib (CaV2.2) @3 μM @30 mM KCl: A (%-Inhibition >95%)

CC1(S(=O)(=O)c2cccc(C(F)(F)F)n2)CCOC(c2ccc(Cl)cc2)C1 (stereo not drawn) [SC-106, 2-[[2-(4-Chlorophenyl)-4-methyl-tetrahydro-pyran-4-yl]sulfonyl]-6-(trifluoromethyl)-pyridine]
Activity Category: %-Inhib (CaV2.2) @3 μM @30 mM KCl: B (%-Inhibition >75% up to ≦95%)

CC1(S(=O)(=O)c2cccc(C(F)(F)F)n2)CCOC(c2ccc(Cl)cc2)C1 (stereo not drawn) [SC-107, 2-[[2-(4-Chlorophenyl)-4-methyl-tetrahydro-pyran-4-yl]sulfonyl]-6-(trifluoromethyl)-pyridine]
Activity Category: %-Inhib (CaV2.2) @3 μM @30 mM KCl: B (%-Inhibition >75% up to ≦95%)

Cc1ccc(C(F)(F)F)cc1S(=O)(=O)C1CCOC(c2ccc(Cl)cc2)C1 (stereo not drawn) [SC-108, 2-(4-Chlorophenyl)-4-((2-methyl-5-(trifluoromethyl)phenyl)sulfonyl)tetrahydro-2H-pyran]
inhibition at 3 µM: 75 to 95%

CCc1ccc(C(F)(F)F)cc1S(=O)(=O)C1CCOC(c2ccc(Cl)cc2)C1 (stereo not drawn) [SC-110, 2-(4-Chlorophenyl)-4-[[2-ethyl-5-(trifluoromethyl)-phenyl]sulfonyl]-tetrahydro-pyran]
Activity Category: %-Inhib (CaV2.2) @3 μM @30 mM KCl: B (%-Inhibition >75% up to ≦95%)

CCc1ccc(C(F)(F)F)cc1S(=O)(=O)C1CCOC(c2ccc(Cl)cc2)C1 (stereo not drawn) [SC-111, 2-(4-Chlorophenyl)-4-[[2-ethyl-5-(trifluoromethyl)-phenyl]sulfonyl]-tetrahydro-pyran]
Activity Category: %-Inhib (CaV2.2) @3 μM @30 mM KCl: C (%-Inhibition >40% up to ≦75%)

CC1(S(=O)(=O)c2cccc(C(F)(F)F)c2)CCOC(c2ccc(S(C)(=O)=O)cc2)C1 (stereo not drawn) [SC-112, 4-Methyl-2-(4-methylsulfonyl-phenyl)-4-[[3-(trifluoromethyl)phenyl]sulfonyl]-tetrahydro-pyran]
inhibition at 3 µM: > 95%

CC1(S(=O)(=O)c2cccc(C(F)(F)F)c2)CCOC(c2ccc(S(C)(=O)=O)cc2)C1 (stereo not drawn) [SC-113, 4-Methyl-2-(4-methylsulfonyl-phenyl)-4-[[3-(trifluoromethyl)phenyl]sulfonyl]-tetrahydro-pyran]
Activity Category: %-Inhib (CaV2.2) @3 μM @30 mM KCl: B (%-Inhibition >75% up to ≦95%)

CC1(S(=O)(=O)c2cccc(C(F)(F)F)c2)CCOC(c2ccc(Cl)cc2S(C)(=O)=O)C1 (stereo not drawn) [SC-114, 2-(4-Chloro-2-methylsulfonyl-phenyl)-4-methyl-4-[[3-(trifluoromethyl)phenyl]sulfonyl]-tetrahydro-pyran]
inhibition at 3 µM: 75 to 95%

CC1(S(=O)(=O)c2cccc(C(F)(F)F)c2)CCOC(c2ccc(Cl)cc2S(C)(=O)=O)C1 (stereo not drawn) [SC-115, 2-(4-Chloro-2-methylsulfonyl-phenyl)-4-methyl-4-[[3-(trifluoromethyl)phenyl]sulfonyl]-tetrahydro-pyran]
Activity Category: %-Inhib (CaV2.2) @3 μM @30 mM KCl: A (%-Inhibition >95%)

CC(C)c1ccc(C(F)(F)F)cc1S(=O)(=O)C1CCOC(c2ccc(Cl)cc2)C1 (stereo not drawn) [SC-118, 2-(4-Chlorophenyl)-4-[[2-isopropyl-5-(trifluoromethyl)-phenyl]sulfonyl]-tetrahydro-pyran]
inhibition at 3 µM: 40 to 75%

CC1(S(=O)(=O)c2cccc(C(F)(F)F)c2)CCOCC1c1ccc(Cl)cc1 (stereo not drawn) [SC-120, 3-(4-Chlorophenyl)-4-methyl-4-[[3-(trifluoromethyl)phenyl]sulfonyl]-tetrahydro-pyran]
inhibition at 3 µM: 75 to 95%

CC1(c2ccc(Cl)cc2)CC(S(=O)(=O)c2cccc(C(F)(F)F)c2)CCO1 (stereo not drawn) [SC-140, 2-(4-Chlorophenyl)-2-methyl-4-[[3-(trifluoromethyl)phenyl]sulfonyl]-tetrahydro-pyran]
inhibition at 3 µM: 75 to 95%

CC1(c2ccc(Cl)cc2)CC(S(=O)(=O)c2cccc(C(F)(F)F)c2)CCO1 (stereo not drawn) [SC-141, 2-(4-Chlorophenyl)-2-methyl-4-[[3-(trifluoromethyl)phenyl]sulfonyl]-tetrahydro-pyran]
Activity Category: %-Inhib (CaV2.2) @3 μM @30 mM KCl: A (%-Inhibition >95%)

CC1(S(=O)(=O)c2cccc(C(F)(F)F)c2)CCOC(c2ccc(S(C)(=O)=O)c(F)c2)C1 (stereo not drawn) [SC-144, 2-(3-Fluoro-4-methylsulfonyl-phenyl)-4-methyl-4-[[3-(trifluoromethyl)phenyl]sulfonyl]-tetrahydro-pyran]
Activity Category: %-Inhib (CaV2.2) @3 μM @30 mM KCl: A (%-Inhibition >95%)

Cc1ccc(S(C)(=O)=O)cc1C1CC(C)(S(=O)(=O)c2cccc(C(F)(F)F)c2)CCO1 (stereo not drawn) [SC-200, 4-Methyl-2-(2-methyl-5-methylsulfonyl-phenyl)-4-[[3-(trifluoromethyl)phenyl]sulfonyl]-tetrahydro-pyran]
inhibition at 3 µM: 75 to 95%

CC1(S(=O)(=O)c2cccc(C(F)(F)F)c2)CCOC(c2cc(C(F)(F)F)cc(S(C)(=O)=O)c2)C1 (stereo not drawn) [SC-202, 4-Methyl-2-[3-methylsulfonyl-5-(trifluoromethyl)-phenyl]-4-[[3-(trifluoromethyl)phenyl]sulfonyl]-tetrahydro-pyran]
inhibition at 3 µM: > 95%

CC1(S(=O)(=O)c2cccc(C(F)(F)F)c2)CCOC(c2cc(F)ccc2S(C)(=O)=O)C1 (stereo not drawn) [SC-204, 2-(5-Fluoro-2-methylsulfonyl-phenyl)-4-methyl-4-[[3-(trifluoromethyl)phenyl]sulfonyl]-tetrahydro-pyran]
Activity Category: %-Inhib (CaV2.2) @3 μM @30 mM KCl: A (%-Inhibition >95%)

CC1(S(=O)(=O)c2cccc(C(F)(F)F)c2)CCOC(c2cc(F)ccc2S(C)(=O)=O)C1 (stereo not drawn) [SC-205, 2-(5-Fluoro-2-methylsulfonyl-phenyl)-4-methyl-4-[[3-(trifluoromethyl)phenyl]sulfonyl]-tetrahydro-pyran]
inhibition at 3 µM: 75 to 95%

Cc1cc(C2CC(C)(S(=O)(=O)c3cccc(C(F)(F)F)c3)CCO2)ccc1S(C)(=O)=O (stereo not drawn) [SC-206, 4-Methyl-2-(3-methyl-4-methylsulfonyl-phenyl)-4-[[3-(trifluoromethyl)phenyl]sulfonyl]-tetrahydro-pyran]
inhibition at 3 µM: > 95%

CC1(S(=O)(=O)c2cccc(C(F)(F)F)c2)CCOC(c2ccc(S(C)(=O)=O)c(F)c2)C1 (stereo not drawn) [SC-208, 2-(3-Fluoro-4-methylsulfonyl-phenyl)-4-methyl-4-[[3-(trifluoromethyl)phenyl]sulfonyl]-tetrahydro-pyran]
inhibition at 3 µM: > 95%
